System: HeLa cells
Experiment: Confocal microscopy of peptide uptake and localization
Format: cell-based
Settings: 1.0 μM peptide, 1 h, serum-free DMEM with 25 mM HEPES pH 7.3, fixed

| Uptake of peptide at 4 °C, fixed cells (confocal) | Substance |
| --- | --- |
| still able to enter the cells | AcK(5-Fam)AKKSRRC(Ger)VLL [compound 4] |
| substantial uptake of the peptide | AcK(5-Fam)C(Acm)KKSRRC(Ger)-NH2 [2a] |
